From patent publication US20070197426A1, “Lactoferrin polypeptide, process for producing the same and inflammation inducing substance” (priority 2004, published 2007)

Assays:
Assay type in all cases: cell-based
Details in all cases: normal human peripheral blood lymphocytes
NFκBp65 = NFκBp65 expression in human peripheral blood lymphocytes (TransAM NFκB family transcription factor assay kit)
Protocol: (§1) Lymphocytes were separated from normal human peripheral blood, which was collected by using heparin sodium, by specific gravity centrifugation using Lympholight H (Cedarlane, Canada), and inducing ability for production of various cytokines and chemokines and inducing ability for expression of NFκBp65, a cellular transcription factor, were analyzed using the lymphocytes. Human cytokines (IL-6 and TNFα; Techne Co., USA), chemokines (IL-8 and MCP-1; American Research Product, Inc., USA) and on NFκB (TransAM NFκB family transcription factor assay kit; Active Motif, Co., USA) were measured by enzyme antibody method.

IL-6 = IL-6 production by human peripheral blood lymphocytes co-cultured with peptide (enzyme antibody method)
Protocol: as §1

MCP-1 = MCP-1 production by human peripheral blood lymphocytes co-cultured with peptide (enzyme antibody method)
Protocol: as §1

IL-8 = IL-8 production by human peripheral blood lymphocytes co-cultured with peptide (enzyme antibody method)
Protocol: as §1

Substance | enhancement of expression of NFκBp65, a cellular transcription factor (NFκBp65) | production of IL-6, one inflammatory cytokine (IL-6) | inducing ability for production of MCP-1 (MCP-1) | inducing ability for production of IL-8 (IL-8)
FKDCHLA [HuPep1] | confirmed | could be confirmed | confirmed | confirmed
GQKDLLFKDSAI [HuPep4] | confirmed | could be confirmed | confirmed | confirmed
